Earlier results on one compound are cited in US5834251A, “Methods of modifying carbohydrate moieties” (Alko Group Ltd., priority 1994, dated 1998).

In general, Km refers to the substrate concentration at which the rate is half of its maximum.

SMILES strings stand for the structures.

The data set addresses α-2,6 Sialyltransferase, EC 2.4.99.1, from rat liver (Rattus norvegicus, UniProt P13721). Conditions: read-out: Km for the sugar donor CMP-NeuAc; commercially available enzyme, such as that from rat liver.

α-2,6 Sialyltransferase, EC 2.4.99.1, from rat liver, sequence (P13721 whole entry): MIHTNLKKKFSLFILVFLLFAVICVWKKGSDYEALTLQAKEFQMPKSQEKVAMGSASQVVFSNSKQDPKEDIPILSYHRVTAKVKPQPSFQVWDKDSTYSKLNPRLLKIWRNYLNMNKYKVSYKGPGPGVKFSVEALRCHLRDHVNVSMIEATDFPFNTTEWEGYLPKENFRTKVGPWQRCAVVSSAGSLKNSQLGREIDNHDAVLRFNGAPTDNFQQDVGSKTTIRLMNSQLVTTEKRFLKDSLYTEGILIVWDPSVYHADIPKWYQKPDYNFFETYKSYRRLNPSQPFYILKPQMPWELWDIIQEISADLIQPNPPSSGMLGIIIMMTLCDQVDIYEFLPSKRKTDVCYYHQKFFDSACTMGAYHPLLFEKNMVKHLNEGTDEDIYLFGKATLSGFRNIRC

Turning to `CC(=O)NC1C(O)CC(OP(=O)(O)OCC2OC(n3ccc(N)nc3=O)C(O)C2O)(C(=O)O)OC1C(O)C(O)CO` (stereo not shown) [CMP-NeuAc, CMP-N-acetylneuraminic acid], the Km is 85 µM.
